In assay [1] the test system is Actinomyces viscosus ATCC 43146. Kind of assay: Automatic MIC-Screening, broth dilution method. The assay is classed as cell-based. As to conditions: micro titer plates, 37° C., 24 hours, tested 120 to 3.75 μg/ml. How it is done: (§1) Determination of the Minimum Inhibitory Concentration (MIC Value)
(§2) 8 μl of each dilution step is mixed with 192 μl of nutrient medium in micro titer plates. The plates are incubated at 37° C. for 24 hours and then the highest dilution (lowest concentration) of the test substance at which growth is just no longer discernible is determined (corresponds to the MIC).

In assay [2] the test system is Corynebacterium sp. (Corynebacterium xerosis ATCC 373 oder C. minutissimum ATCC 23348). In words: Automatic MIC-Screening, broth dilution method. Particulars: micro titer plates, 37° C., 24 hours, tested 120 to 3.75 μg/ml. It counts as cell-based. How it is done:
as §1, §2
A general note: Broth dilution looks for growth in wells or tubes with falling amounts of substance.

Assay [3] relates to Staphylococcus aureus ATCC 6538. Kind of assay: Automatic MIC-Screening, broth dilution method. The assay is classed as cell-based. Particulars: micro titer plates, 37° C., 24 hours, tested 120 to 3.75 μg/ml. How it is done:
as §1, §2

The next assay has as its system A. viscosus ATCC43146. In words: MIC vs. oral germs, broth dilution method. It counts as cell-based, Actinomyces viscosus. An excerpt: (§3) b) Determination of MIC vs. different oral germs in the broth dilution method • Medium: Thioglycolate Bouillon with Hemin and Menadion Columbia Bouillon with Hemin and Menadion für P. gingivalis und P. nigrescens • diluent: the corresponding amount of the substances was pippeted directly • Examples of Test organisms: • Actinobacillus actinomycetemcomitans ATCC43718 • Streptococcus gordonii ATCC10558 • Streptococcus mutans ATCC33402 • Actinomyces viscosus ATCC43146 • Fusobacterium nucleatum subsp. polymorphum ATCC1095 • Porphyromonas gingivalis ATCC3277 • Prevotella nigrescens ATCC33563 • Incubation: 7-10 days at 37° C. under anaerobic conditions, resp. 24 h aerobically with 10% CO2 for Streptococci und A. actinomycetemcomitans • Test solution: Stock solutions in ethanol with 1500 ppm (w/w) are used from all test substances
(§4) Bacteria are taken from blood agar plates with cotton swabs and a suitable O.D. is adjusted in the corresponding medium (McFarland 0.5). This solution is used for F. nucleatum and P. nigrescens in undiluted state, for the other strains a dilution of 1:20 is used. To each 2 ml of active ingredient containing solution 0.1 ml of the bacteria culture is added and incubated as described above.

The test system of assay [4] is F. nucleatum subsp. polymorphum ATCC10953. In words: MIC vs. oral germs, broth dilution method. It counts as cell-based, Fusobacterium nucleatum subsp. polymorphum.
Source text: as §3, §4

The test system of assay [5] is Candida albicans ATCC 10231. In words: MIC, Agar incorporation test. It counts as cell-based. Particulars: Sabouraud 4% glucose agar, 3 days at 28° C. As for the experimental part:
0.3 ml of each dilution step is mixed with 15 ml of nutrient medium while the latter is still liquid. After the nutrient medium has solidified, 10 μl of each of the following organism dilutions of the test strains in 0.85% NaCl solution are spotted onto the agar medium. […]

For another assay, the system named is S. gordonii ATCC10558. Kind of assay: MIC vs. oral germs, broth dilution method. The assay is classed as cell-based, Streptococcus gordonii.
Source text: as §3, §4

Assay [6] relates to A. actinomycetemcomitans ATCC43718. Kind of assay: MIC vs. oral germs, broth dilution method. It counts as cell-based, Actinobacillus actinomycetemcomitans.
Source text: as §3, §4

For the next assay, the system named is P. gingivalis ATCC3277. In words: MIC vs. oral germs, broth dilution method. It counts as cell-based, Porphyromonas gingivalis.
Source text: as §3, §4

A further assay deals with S. mutans ATCC33402. In words: MIC vs. oral germs, broth dilution method. It counts as cell-based, Streptococcus mutans.
Source text: as §3, §4

The subject of a further assay is P. nigrescens ATCC33563. Kind of assay: MIC vs. oral germs, broth dilution method. The assay is classed as cell-based, Prevotella nigrescens.
Source text: as §3, §4

The subject of assay [7] is Escherischia coli ATCC 10536. Kind of assay: MIC, Agar incorporation test. It counts as cell-based. Particulars: 24 hours at 37° C. How it is done:
(§5) 0.3 ml of each dilution step is mixed with 15 ml of nutrient medium while the latter is still liquid. After the nutrient medium has solidified, 10 μl of each of the following organism dilutions of the test strains in 0.85% NaCl solution are spotted onto the agar medium.
(§6) The plates are incubated during 24 hours at 37° C. and then the highest dilution (lowest concentration) of the test substance at which growth is just no longer discernible (corresponds to the MIC) is determined.

Assay [8] relates to Klebsiella pneumoniae ATCC 4352. In words: MIC, Agar incorporation test. The assay is classed as cell-based. How it is done: as §5, §6
In assay [9] the test system is Corynebacterium xerosis ATCC 373. Kind of assay: MIC, Agar incorporation test. It counts as cell-based. How it is done:
as §5, §6

For assay [10], the system named is Aspergillus niger ATCC 6275. In words: MIC, Agar incorporation test. It counts as cell-based. How it is done:
as §5, §6

In assay [11] the test system is Propionibacterium acnes ATCC 6919. In words: MIC, Agar incorporation test. It counts as cell-based. As for the experimental part:
as §5, §6

In assay [12] the test system is Proteus vulgaris ATCC 6896. Kind of assay: MIC, Agar incorporation test. It counts as cell-based. How it is done: as §5, §6
The subject of assay [13] is C. minutissimum ATCC 23348. In words: MIC, Agar incorporation test. It counts as cell-based. How it is done:
as §5, §6

For assay [14], the system named is Staphylococcus aureus ATCC 6538. Kind of assay: MIC, Agar incorporation test. The assay is classed as cell-based. As for the experimental part: as §5, §6
Assay [15] has as its system Pseudomonas aeruginosa ATCC 15442. In words: MIC, Agar incorporation test. The assay is classed as cell-based. As for the experimental part:
as §5, §6

Assay [16] has as its system Staphylococcus epidermidis ATCC 12228. Kind of assay: MIC, Agar incorporation test. The assay is classed as cell-based. How it is done: as §5, §6
For assay [17], the system named is Salmonella choleraesuis ATCC 9184. Kind of assay: MIC, Agar incorporation test. It counts as cell-based. As to conditions: 24 hours at 37° C.
Setting [18] is: broth dilution, 7-10 days at 37° C., anaerobic.
Setting [19] is: broth dilution, 24 h aerobically with 10% CO2, 37° C.
Where [20] appears, read: broth dilution, Columbia Bouillon with Hemin and Menadion, 7-10 days at 37° C., anaerobic.

Molecules are shown by their SMILES. ≈ marks a conversion by molar mass, not a printed value.

As for `CCCCCCCCOC(=O)/C(C#N)=C(\O)c1ccc(-c2ccccc2)cc1` [(101d), 3-biphenyl-4-yl-2-cyano-3-hydroxy-acrylic acid octylester], the “MIK (MIC) A. viscosus” value in assay [1] is recorded as under 3.75 μγ/ml. The “MIK (MIC) Corynebacterium sp.” value in assay [2] is on record as under 3.75 μγ/ml. Moreover, in [3], the “MIK (MIC) S. aureus” value is under 3.75 μγ/ml. Moreover, the MIC in the assay with A. viscosus ATCC43146 (Actinomyces viscosus, ATCC43146, read-out: MHK (MIC) A. viscosus ATCC43146) is at most 0.94 µg/mL; in assay [4] (Fusobacterium nucleatum, ATCC10953, read-out: MHK (MIC) F. nucleatum subsp. polymorphum ATCC10953) it was 15 µg/mL (≈ 39.7 µM); in assay [5] (Candida albicans, ATCC10231, 72 h), over 400 µg/mL; in the assay on S. gordonii ATCC10558 (Streptococcus gordonii, ATCC10558, 24 h, read-out: MHK (MIC) S. gordonii ATCC10558) it was at most 0.94 µg/mL; in assay [6] (Aggregatibacter actinomycetemcomitans, ATCC43718, 24 h, read-out: MHK (MIC) A. actinomycetemcomitans ATCC43718), at least 15 µg/mL; with P. gingivalis ATCC3277 (Porphyromonas gingivalis, ATCC3277, read-out: MHK (MIC) P. gingivalis ATCC3277) it was 7.5 µg/mL (≈ 19.9 µM). The MIC in the assay with S. mutans ATCC33402 (Streptococcus mutans, ATCC33402, 24 h, read-out: MHK (MIC) S. mutans ATCC33402) was at most 0.94 µg/mL; in the assay on P. nigrescens ATCC33563 (Prevotella nigrescens, ATCC33563, read-out: MHK (MIC) P. nigrescens ATCC33563), over 15 µg/mL; in [7], over 400 µg/mL; in assay [8] (Klebsiella pneumoniae, ATCC4352, 24 hours at 37° C.) it was over 400 µg/mL; in assay [9] (Corynebacterium xerosis, ATCC373, 24 hours at 37° C.), under 1.56 µg/mL; in assay [10] (Aspergillus niger, ATCC6275), over 400 µg/mL. The MIC in [11] (Cutibacterium acnes, ATCC6919, 24 hours at 37° C.) was 6.25 µg/mL (≈ 16.6 µM); in assay [12] (Proteus vulgaris, ATCC6896, 24 hours at 37° C.), over 400 µg/mL; in assay [13] (Corynebacterium minutissimum, ATCC23348, 24 hours at 37° C.), under 1.56 µg/mL; in [14] (Staphylococcus aureus, ATCC6538, 24 hours at 37° C.), under 1.56 µg/mL; in assay [15] (Pseudomonas aeruginosa, ATCC15442, 24 hours at 37° C.), over 400 µg/mL; in [16] (Staphylococcus epidermidis, ATCC12228, 24 hours at 37° C.), under 1.56 µg/mL.

As for `CCCCC(CC)COC(=O)C(C#N)=C(O)c1ccc(-c2ccc(C(O)=C(C#N)C(=O)OCC(CC)CCCC)cc2)cc1` (stereo not shown) [(102b)], the “MHK (MIC) A. viscosus ATCC43146” value with A. viscosus ATCC43146 (setting [18]) was found to be 7.5 ppm. The “MHK (MIC) F. nucleatum subsp. polymorphum ATCC10953” value in assay [4] (setting [18]) is recorded as over 15 ppm. Besides, in assay [5], the “MIC Candida albicans ATCC 10231” value was over 400 ppm. Also, the “MHK (MIC) S. gordonii ATCC10558” value in the assay on S. gordonii ATCC10558 (setting [19]) turned out to be 15 ppm. Further, the “MHK (MIC) A. actinomycetemcomitans ATCC43718” value in assay [6] (setting [19]) is listed as over 15 ppm. Moreover, the “MHK (MIC) P. gingivalis ATCC3277” value with P. gingivalis ATCC3277 (setting [20]) was over 15 ppm. Further, in the assay with S. mutans ATCC33402 (setting [19]), the “MHK (MIC) S. mutans ATCC33402” value is listed as over 15 ppm. The “MHK (MIC) P. nigrescens ATCC33563” value in the assay with P. nigrescens ATCC33563 (setting [20]) is recorded as over 15 ppm. Besides, the “MIC Escherischia coli ATCC 10536” value in [7] is on record as over 400 ppm. Further, in [8] (24 hours at 37° C.), the “MIC Klebsiella pneumoniae ATCC 4352” value is over 400 ppm. Further, the “MIC Corynebacterium xerosis ATCC 373” value in [9] (24 hours at 37° C.) is listed as under 1.56 ppm. Besides, in assay [10], the “MIC Aspergillus niger ATCC 6275” value is on record as over 400 ppm. Moreover, the “MIC Propionibacterium acnes ATCC 6919” value in assay [11] (24 hours at 37° C.) was under 1.56 ppm. Further, in [12] (24 hours at 37° C.), the “MIC Proteus vulgaris ATCC 6896” value was over 400 ppm. Further, the “MIC C. minutissimum ATCC 23348” value in assay [13] (24 hours at 37° C.) is on record as 50 ppm. Besides, the “MIC Staphylococcus aureus ATCC 6538” value in [14] (24 hours at 37° C.) is given as 100 ppm. Also, the “MIC Pseudomonas aeruginosa ATCC 15442” value in assay [15] (24 hours at 37° C.) is on record as over 400 ppm. Moreover, the “MIC Staphylococcus epidermidis ATCC 12228” value in assay [16] (24 hours at 37° C.) amounted to 25 ppm. Besides, in assay [17], the “MIC Salmonella choleraesuis ATCC 9184” value is over 400 ppm.

The values are drawn from patent publication US7476753B2, “3-aryl-2-cyano-3-hydroxy-acrylic acid derivatives” (Ciba Specialty Chemicals Corporation, priority 2003, dated 2009).
